The values below come from the SangsterLogP compilation.

This data set can be described thus: method code SF-HPLC, from DOI: 10.2478/s11532-013-0336-y.
In turn, `C/C=C/c1cc(OC)c(OC)cc1OC` displayed a logP of 2.44. The figure for `CCCC/C=C\c1c(OC)cc(OC)cc1OC` is 4.57.

In the case of `CCCCC=Cc1cc(OC)c(OC)c(OC)c1`, the logP worked out at 4.1. Regarding `CCCCCC(O)c1cc(OC)c(OC)c(OC)c1` (stereo not given), the logP stood at 2.9. The figure for `C=CCOc1c(OC)cc(C=CC)cc1OC` is 3.22; for `CC/C=C\c1cc(OC)c(OC)c(OC)c1` it is 3.06; for `CCC=Cc1cc(OC)c(OC(=O)c2cccnc2)c(OC)c1` it is 3.5.

For `C/C=C/c1ccc(OC)c(OC)c1OC`, the logP worked out at 3.09. The figure for `CC=Cc1cc(OC)c(OC(=O)c2cccnc2)c(OC)c1` is 2.94; for `C/C=C/c1c(OC)cc(OC)cc1OC` it is 2.61. The figure for `C/C=C/c1cc(OC)cc(OC)c1OC` is 2.93; for `C=CCOc1c(OC)cc(C=CCC)cc1OC` it is 3.81. Regarding `CCC(O)c1cc(OC)c(OC)c(OC)c1` (stereo not given), the logP was 1.45.

For the molecule `C/C=C/c1c(OC)ccc(OC)c1OC`, the logP was 2.73.

As to `CCCC=Cc1cc(OC)c(OC(=O)c2cccnc2)c(OC)c1`, the logP was determined as 3.96.

`CCCC=Cc1cc(OC)c(OC)c(OC)c1` displayed a logP of 3.67. The figure for `CCC/C=C\c1c(OC)cc(OC)cc1OC` is 3.97; for `CCCCCCC(O)c1cc(OC)c(OC)c(OC)c1` (stereo not given) it is 3.59. The figure for `CCCCCC=Cc1cc(OC)c(OC)c(OC)c1` is 4.5. The figure for `CC/C=C\c1c(OC)cc(OC)cc1OC` is 3.56; for `CCCCCCCC(O)c1cc(OC)c(OC)c(OC)c1` (stereo not given) it is 3.95; for `CCCCC(O)c1cc(OC)c(OC)c(OC)c1` (stereo not given) it is 2.49.

`C/C=C/c1cc(OC)c(OC)c(OC)c1` gave a logP of 2.27. Consider `CCCC(O)c1cc(OC)c(OC)c(OC)c1` (stereo not given), for which the logP is 1.94. `C=CCOc1c(OC)cc(C=CCCC)cc1OC` showed a logP of 4.28.
